{
  "source": "paper PMC8448937",
  "about": "(Journal of clinical pharmacy and therapeutics, 2021)",
  "key": {"[1]": {"details": "in vivo"}, "[2]": {"details": "previous studies incl. initial analysis of P1026s data; cited from earlier work"}, "[3]": {"details": "non-pregnant adults; cited from earlier work"}, "clinical": {"assay": "clinical", "details": "female, human, in vivo"}, "[4]": {"details": "for CL/F (oral clearance): all women not receiving lopinavir/ritonavir, median; for C0: pre-dose"}, "CYP3A4": {"test_system": "CYP3A4", "details": "cited from earlier work"}, "[5]": {"details": "postpartum, with LPV/r, median (IQR)"}, "[6]": {"details": "postpartum, without LPV/r, other regimens, median (IQR)"}, "[7]": {"details": "postpartum, without LPV/r, with ATV/r, median (IQR)"}, "[8]": {"details": "third trimester, with LPV/r, median (IQR)"}, "[9]": {"details": "third trimester, without LPV/r, other regimens, median (IQR)"}, "[10]": {"details": "third trimester, without LPV/r, with ATV/r, median (IQR)"}},
  "note": "Read-outs that look alike come from different tables or passages of the source.",
  "data": [
    {"smiles": "C[C@H](Cn1cnc2c(N)ncnc21)OCP(=O)(O)O", "note": "[Tenofovir]", "values": [
      {"measurement": "AUC0–24 (exposure) lower in third trimester compared to postpartum", "setting": "[1]; female, human", "result": 27, "unit": "%"},
      {"measurement": "decrease in AUC0–24 during third trimester compared to postpartum", "setting": "[1]; female, human", "result": 25, "unit": "%"},
      {"measurement": "increase in CL/F during third trimester compared to postpartum", "setting": "[1]; female, human", "result": 33, "unit": "%"},
      {"measurement": "oral clearance higher in third trimester compared to postpartum", "setting": "[1]; female, human, po", "result": 27, "unit": "%"},
      {"measurement": "differences in AUC0–24, third trimester vs postpartum", "setting": "[1]", "result": "did not reach statistical significance"},
      {"measurement": "clearance higher in third trimester of pregnancy compared to postpartum", "setting": "[2]", "result": "22–39%"},
      {"measurement": "exposure lower in third trimester of pregnancy compared to postpartum", "setting": "[2]", "result": "20–33%"},
      {"measurement": "exposure increased with concomitant lopinavir/ritonavir", "setting": "[3]", "result": 32, "unit": "%"},
      {"measurement": "AUC(0-t)", "setting": "clinical; AUC0–24", "result": 2200, "unit": "ng·h/mL"},
      {"measurement": "Cmax", "setting": "clinical; Cmax", "result": 257, "unit": "ng/mL"},
      {"measurement": "concentration at 24 h", "setting": "[4]; female, human, in vivo, C24, third trimester, without LPV/r, with ATV/r, 24 hour post-dose, median (IQR)", "result": 47, "unit": "ng/mL"},
      {"measurement": "half-life", "setting": "[4]; female, human, in vivo, t1/2, postpartum, with LPV/r, median (IQR)", "result": 12.5, "unit": "h"},
      {"measurement": "half-life", "setting": "[4]; female, human, in vivo, t1/2, third trimester, with LPV/r, median (IQR)", "result": 17.5, "unit": "h"},
      {"measurement": "CL/F (oral clearance)", "setting": "[4]; postpartum", "result": 48, "unit": "L/h"},
      {"measurement": "CL/F", "setting": "[4]; [5]", "result": "49 (36 – 75) L/hr"},
      {"measurement": "Vd/F", "setting": "[4]; [5]", "result": "1224 (643 – 1312) L/hr"},
      {"measurement": "C0", "setting": "[4]; [5]", "result": "59.4 (5.0 – 77.8) ng/mL"},
      {"measurement": "CL/F", "setting": "[4]; [6]", "result": "49 (30 – 58) L/hr"},
      {"measurement": "Vd/F", "setting": "[4]; [6]", "result": "757 (514 – 1133) L/hr"},
      {"measurement": "C0", "setting": "[4]; [6]", "result": "74 (50 – 118) ng/mL"},
      {"measurement": "CL/F", "setting": "[4]; [7]", "result": "48 (38 – 63) L/hr"},
      {"measurement": "Vd/F", "setting": "[4]; [7]", "result": "949 (676 – 1246) L/hr"},
      {"measurement": "C0", "setting": "[4]; [7]", "result": "60 (31 – 93) ng/mL"},
      {"measurement": "CL/F (oral clearance)", "setting": "[4]; third trimester", "result": 61, "unit": "L/h"},
      {"measurement": "CL/F", "setting": "[4]; [8]", "result": "46 (40 – 60) L/hr"},
      {"measurement": "Vd/F", "setting": "[4]; [8]", "result": "1103 (973 – 1312) L/hr"},
      {"measurement": "C0", "setting": "[4]; [8]", "result": "70 (53 – 85) ng/mL"},
      {"measurement": "CL/F", "setting": "[4]; [9]", "result": "57 (47 – 62) L/hr"},
      {"measurement": "Vd/F", "setting": "[4]; [9]", "result": "1159 (1037 – 1709) L/hr"},
      {"measurement": "t1/2", "setting": "[4]; [9]", "result": "15.9 (14.3 – 19.2) hr"},
      {"measurement": "C0", "setting": "[4]; [9]", "result": "54 (42 – 67) ng/mL"},
      {"measurement": "CL/F", "setting": "[4]; [10]", "result": "64 (57 – 85) L/hr"},
      {"measurement": "Vd/F", "setting": "[4]; [10]", "result": "1284 (1120 – 2181) L/hr"},
      {"measurement": "C0", "setting": "[4]; [10]", "result": "48 (36 – 59) ng/mL"}
    ]},
    {"smiles": "CC(C)(C)NC(=O)[C@@H]1C[C@@H]2CCCC[C@@H]2CN1C[C@@H](O)[C@H](Cc1ccccc1)NC(=O)[C@H](CC(N)=O)NC(=O)c1ccc2ccccc2n1", "note": "[saquinavir]", "values": [
      {"measurement": "CYP3A4 inhibition", "setting": "CYP3A4", "result": "weak inhibition"}
    ]}
  ]
}
